According to patent publication US20240238392A1 (priority 2023, published 2024):
Where no end group is shown, it is not given here.

Assays:
[1] = target: neurokinin-1 receptor (Rattus norvegicus, UniProt P14600); settings: in vivo; cited from earlier work
[2] = test system: acute heart failure caused by viral infection; settings: human, in vivo
[3] = test system: chronic heart failure caused by systolic dysfunction; settings: human, in vivo
[4] = test system: chronic heart failure caused by diastolic dysfunction; settings: human, in vivo
[5] = test system: isolated cardiac fibroblasts; settings: cited from earlier work

Sequence of neurokinin-1 receptor (P14600 whole entry): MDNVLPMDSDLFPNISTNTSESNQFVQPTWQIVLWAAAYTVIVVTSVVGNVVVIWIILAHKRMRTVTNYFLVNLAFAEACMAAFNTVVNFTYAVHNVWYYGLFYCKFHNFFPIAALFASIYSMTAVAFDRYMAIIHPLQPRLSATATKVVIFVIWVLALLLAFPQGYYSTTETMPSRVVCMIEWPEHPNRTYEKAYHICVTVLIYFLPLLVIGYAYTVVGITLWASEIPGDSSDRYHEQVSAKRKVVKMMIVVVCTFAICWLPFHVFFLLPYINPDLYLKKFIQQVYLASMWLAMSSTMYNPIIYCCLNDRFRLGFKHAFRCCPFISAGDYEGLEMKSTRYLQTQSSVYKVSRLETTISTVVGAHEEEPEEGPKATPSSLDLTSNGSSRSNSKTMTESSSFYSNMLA

In the case of CC(=O)N[C@@H](Cc1c[nH]c2ccccc12)C(=O)OCc1cc(C(F)(F)F)cc(C(F)(F)F)c1 [L732138], the “cardiac fibrosis in SHR” value [1] is given as “prevented”, the “increase of fetal gene expression by cardiomyocytes in SHR” value [1] is given as “prevented” and the “upregulation of endothelin-1 in SHR” value [1] is given as “prevented”.
In the case of [N-]=[N+]=O [nitrous oxide], the glutamate blood level [2] is reported as “lower than before”, the “patient-reported respiratory rate and peripheral edema” value [2] is reported as “significant improvement in respiratory rate and peripheral edema” and the “substance P blood level” value [2] is reported as “lower than before”.
In the case of botulinum toxin, the “Substance P blood levels” value [3] is reported as “lower than before”, the “patient-reported breath and fatigue” value [3] is reported as “significant improvement in breath and fatigue” and the glutamate blood level [4] is reported as “lower than before”. The “patient-reported breath and pulmonary edema” value [4] was “significant improvement in breath and pulmonary edema” and the “substance P blood level” value [4] was “lower than before”.
For “substance P: sensory nerve neuropeptide (tachykinin) acting on the neurokinin-1 receptor (RPKPQQFFGLM; ends and bridges not checked; UniProt P20366 58-68, looked up)”, the fibroblast function [5] is listed as “no changes in fibroblast function were observed” and the “genes related to cell-cell adhesion, cell-matrix adhesion, and extracellular matrix regulation” value [5] is listed as “transiently up-regulated”.
